Reference: patent US8183272B2, “Indanyl compounds” (Daiichi Sankyo Company, Limited, priority 2008, dated 2012)

Legend:
PTH secretion = assay: Evaluation of PTH secretion promoting activity in rat (blood serum PTH, ELISA); format: in vivo; conditions: female F344 rat, oral 3 mg/5 mL/kg, Means ± S.D., n = 3; for Blood Serum PTH (1-84) Concentration, 0 minute: before administration
Protocol: Evaluation of PTH Secretion Promoting Activity in Rat
A 10 to 14-week old female F344 rat (Charles River Japan, Inc.) fasted overnight was anesthetized using ether, and blood serum before the administration was prepared by drawing blood from the jugular vein of the animal. Subsequently, the test compound was orally administered at a dose of 3 mg/5 mL/kg using a solvent (0.5% aqueous methyl cellulose solution containing 5% DMA). Blood was drawn from the jugular vein under ether anesthesia at 5, 15, 30, 60, 120, and 240 minutes after the administration of the test compound, and the blood serum was prepared. The blood serum PTH concentration was measured using rat Intact PTH ELISA kit (manufactured by Immutopics, Inc.).

[1] = target: T1, human calcium-sensing receptor (CaSR) (Homo sapiens, UniProt P41180); assay: Inhibitory activity on calcium-sensing receptor (CaSR) using intracellular calcium increase as an indicator (FLIPR, CHO/hCaSR); format: cell-based; conditions: CHO/hCaSR cells; intracellular Ca increase induced by CaCl2; test compound 1.05 to 10,000 nM
T1 construct: expressed in transfected cells; host or cells: CHO cells (CHO/hCaSR)
T1 sequence (P41180 20-1078): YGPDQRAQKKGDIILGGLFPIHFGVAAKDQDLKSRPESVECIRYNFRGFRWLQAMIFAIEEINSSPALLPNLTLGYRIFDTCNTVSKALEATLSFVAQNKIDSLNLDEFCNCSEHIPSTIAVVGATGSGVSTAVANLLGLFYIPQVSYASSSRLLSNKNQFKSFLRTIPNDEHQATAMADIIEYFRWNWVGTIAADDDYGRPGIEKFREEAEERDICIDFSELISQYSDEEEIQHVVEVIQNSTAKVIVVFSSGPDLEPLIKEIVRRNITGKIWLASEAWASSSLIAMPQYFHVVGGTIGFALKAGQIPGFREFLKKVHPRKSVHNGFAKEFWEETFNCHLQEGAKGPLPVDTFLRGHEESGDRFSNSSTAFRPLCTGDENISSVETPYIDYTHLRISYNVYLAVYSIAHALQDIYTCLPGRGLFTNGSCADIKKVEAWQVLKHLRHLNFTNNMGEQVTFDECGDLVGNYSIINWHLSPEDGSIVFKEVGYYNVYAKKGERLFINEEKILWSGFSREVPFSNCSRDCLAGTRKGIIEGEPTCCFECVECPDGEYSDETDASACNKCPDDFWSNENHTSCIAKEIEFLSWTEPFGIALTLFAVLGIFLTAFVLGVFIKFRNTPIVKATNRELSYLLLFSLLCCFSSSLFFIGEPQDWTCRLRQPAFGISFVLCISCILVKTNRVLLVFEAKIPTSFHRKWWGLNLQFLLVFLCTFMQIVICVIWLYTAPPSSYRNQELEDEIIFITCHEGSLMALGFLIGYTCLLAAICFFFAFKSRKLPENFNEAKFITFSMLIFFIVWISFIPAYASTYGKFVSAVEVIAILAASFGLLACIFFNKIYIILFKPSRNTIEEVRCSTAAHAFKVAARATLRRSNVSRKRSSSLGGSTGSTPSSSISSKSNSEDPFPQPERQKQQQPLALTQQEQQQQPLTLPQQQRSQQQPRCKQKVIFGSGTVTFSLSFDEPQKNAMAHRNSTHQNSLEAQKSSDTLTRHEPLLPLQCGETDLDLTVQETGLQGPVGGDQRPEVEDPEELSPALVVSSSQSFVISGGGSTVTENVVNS
Protocol: Evaluation of inhibitory activity on calcium-sensing receptor (CaSR) using intracellular calcium increase as an indicator
The preparation which is prepared by adding CHO/hCaSR to F12 medium (manufactured by Invitrogen) containing 10% fetal bovine serum to have 2×10^5 cells/mL was applied to a 384-well in an amount of 50 μL/well, and then incubated overnight in a CO2 incubator. The culture supernatant was completely removed, the assay buffer (20 mM HEPES, HBSS (Ca and Mg free) containing 2.5 mM probenecid, pH 7.4) containing Calcium 3 (manufactured by Molecular Devices), i.e., a fluorescent intracellular calcium indicator, was added thereto in an amount of 25 μL/well, and the mixture was maintained for 1 hour in a CO2 incubator. Meanwhile, Calcium 3 was prepared according to the protocol enclosed in FLIPR Calcium 3 Assay Kit (manufactured by Molecular Devices). After maintaining it for 1 hour, a solution in which the test compound is prepared to have 2.1 to 20,000 nM (final concentration of 1.05 to 10,000 nM) by an assay buffer was added thereto in an amount of 25 μL/well, and maintained for 15 minutes in a CO2 incubator. Then, the CaCl2 solution prepared to have […] by using the assay buffer was added in an amount of 25 μL/well, and the resulting intracellular Ca increase (i.e., fluorescence intensity) was measured over time using a fluorescence imaging plate reader (FLIPR, manufactured by Molecular Devices). From the data obtained, the difference between the fluorescence intensity before the addition of CaCl2 solution and the maximum fluorescence intensity after the addition of CaCl2 solution was calculated, and the 50% inhibition concentration (IC50) of the test compound was obtained.

Structure (SMILES)	Blood Serum PTH (1-84) Concentration, After 5 minutes (PTH secretion) [pg/mL]	Blood Serum PTH (1-84) Concentration, After 15 minutes (PTH secretion) [pg/mL]	Blood Serum PTH (1-84) Concentration, After 30 minutes (PTH secretion) [pg/mL]	Blood Serum PTH (1-84) Concentration, After 60 minutes (PTH secretion) [pg/mL]	Blood Serum PTH (1-84) Concentration, After 120 minutes (PTH secretion) [pg/mL]	Blood Serum PTH (1-84) Concentration, After 240 minutes (PTH secretion) [pg/mL]	Blood Serum PTH (1-84) Concentration, 0 minute (PTH secretion) [pg/mL]	IC50 [1] [µM]
Cc1cccc([C@@H](C)OC[C@H](O)CNC(C)(C)CC2Cc3ccccc3C2)c1CCC(=O)O [Example 4, 3-{2-[(1R)-1-{[(2R)-3-{[1-(2,3-Dihydro-1H-inden-2-yl)-2-methylpropan-2-yl]amino}-2-hydroxypropyl]oxy}ethyl]-6-methylphenyl}propanoic acid]	68.2 ± 6.0	489.1 ± 106.0	538.6 ± 155.1	117.0 ± 33.7	108.8 ± 27.4	91.9 ± 24.5	20.5 ± 6.6	–
C[C@@H](OC[C@H](O)CNC1(CC2Cc3ccccc3C2)CC1)c1ccccc1CCC(=O)O [Example 14, 3-{2-[(1R)-1-{[(2R)-3-{[1-(2,3-Dihydro-1H-inden-2-ylmethyl)cyclopropyl]amino}-2-hydroxypropyl]oxy}ethyl]phenyl}propanoic acid]	211.6 ± 28.4	471.7 ± 112.8	146.1 ± 45.2	78.9 ± 5.0	81.8 ± 4.9	94.3 ± 15.7	62.8 ± 11.4	≤ 2.51
C[C@@H](OC[C@H](O)CNC(C)(C)CC1Cc2ccccc2C1)c1ccccc1CCCOCC(=O)O [Example 85, (3-{2-[(1R)-1-{[(2R)-3-{[1-(2,3-Dihydro-1H-inden-2-yl)-2-methylpropan-2-yl]amino}-2-hydroxypropyl]oxy}ethyl]phenyl}propoxy)acetic acid]	–	–	–	–	–	–	–	≤ 2.27
